The record followed here is ChEMBL document CHEMBL4616653, “Naphthacemycins from a Streptomyces sp. as Protein-Tyrosine Phosphatase Inhibitors” (J Nat Prod, 2020).

This test has as its target T1, Tyrosine-protein phosphatase non-receptor type 1 (Homo sapiens, UniProt P18031).
T1 sequence (P18031 whole entry): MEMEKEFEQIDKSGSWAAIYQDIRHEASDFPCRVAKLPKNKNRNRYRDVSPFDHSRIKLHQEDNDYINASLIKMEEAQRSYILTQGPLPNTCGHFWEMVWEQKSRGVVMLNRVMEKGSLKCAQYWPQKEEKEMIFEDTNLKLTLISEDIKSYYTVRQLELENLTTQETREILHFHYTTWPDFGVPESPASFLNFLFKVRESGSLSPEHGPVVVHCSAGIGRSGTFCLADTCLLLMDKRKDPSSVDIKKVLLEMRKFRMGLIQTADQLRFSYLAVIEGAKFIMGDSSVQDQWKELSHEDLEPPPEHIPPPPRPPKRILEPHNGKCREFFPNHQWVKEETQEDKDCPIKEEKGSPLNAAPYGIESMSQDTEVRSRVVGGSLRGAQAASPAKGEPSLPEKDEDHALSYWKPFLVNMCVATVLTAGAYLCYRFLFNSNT
As to the kind of experiment: Inhibition of recombinant human PTP1B expressed in Escherichia coli using pNPP as substrate preincubated for 15 mins followed by substrate addition and measured after 60 mins.

One may read the IC50 as the point on the concentration scale where inhibition reaches its midpoint.

Take `COc1cc(O)c(Cl)c(C)c1-c1cc(O)c(Cl)c2cc3c(c(O)c12)C(=O)c1c(O)c(Cl)c(O)c(Cl)c1C3(C)C`: the IC50 amounted to 2810 nM.
To `COc1cc(O)c(Cl)c(C)c1-c1cc(O)cc2cc3c(c(O)c12)C(=O)c1c(cc(O)c(Cl)c1O)C3(C)C` belongs 2700 nM.
Under `COc1cc(O)c(Cl)c(C)c1-c1cc(O)c(Cl)c2cc3c(c(O)c12)C(=O)c1c(cc(O)c(Cl)c1O)C3(C)C` stands 8270 nM; under `COc1cc(O)c(Cl)c(C)c1-c1cc(O)cc2cc3c(c(O)c12)C(=O)c1c(O)cc(O)cc1C3(C)C`, 3380 nM; under `COc1cc(O)cc(C)c1-c1cc(O)cc2cc3c(c(O)c12)C(=O)c1c(cc(O)c(Cl)c1O)C3(C)C`, 7690 nM.
Under `COc1cc(O)c(Cl)c(C)c1-c1cc(O)c(Br)c2cc3c(c(O)c12)C(=O)c1c(O)cc(O)cc1C3(C)C` stands 2620 nM.
Turning to `COc1cc(O)c(Cl)c(C)c1-c1cc(O)cc2cc3c(c(O)c12)C(=O)c1c(O)c(Cl)c(O)c(Cl)c1C3(C)C`, the IC50 amounted to 2110 nM.
For `COc1c(Cl)c(O)c(Cl)c(C)c1-c1cc(O)c(Cl)c2cc3c(c(O)c12)C(=O)c1c(O)c(Cl)c(O)c(Cl)c1C3(C)C`, the IC50 stood at 340 nM.
